Results reported in patent publication US6699879B1, “Phenyl urea and phenyl thiourea derivatives as orexin receptor antagonists” (SmithKline Beecham p.l.c., priority 1999, dated 2004).
No end group written: not given here.

Experiments:
orexin receptors = experiment: Rat sleep/EEG studies, central administration; format: in vivo; details: central administration at the onset of the normal sleep period; largely at the expense of paradoxical sleep and slow wave sleep 2
Description: Therefore antagonists of its receptor may be useful in the treatment of sleep disorders including insomnia.

freely-feeding rats = details: central administration, 4 hour time period; cited from earlier work

**Q.** For “orexin-A: ligand for the orexin-1 receptor, an agonist of the orexin receptors; 33-residue peptide, sequence in the 1st table (QPLPDCCRQKTCSCRLYELLHGAGNHAAGILTL-NH2; not fully specified (residue 1, bridges); ends and bridges not checked; UniProt O43612 34-66, looked up)”, which effect on arousal (orexin receptors) is on record?
**A.** Its effect on arousal is “dose-related increase in arousal”.

**Q.** What about the “increase in food intake over control rats receiving vehicle” value (freely-feeding rats) of the same substance?
**A.** The value was “approximately four-fold”.
